In patent US10118930B2, “Piperidinylpyrazolopyrimidinones and their use” (BAYER PHARMA AKTIENGESELLSCHAFT, priority 2015, dated 2018):
Counter-ions that a name gives are not always drawn.

System: clot lysis (fibrinolysis) in diluted human citrated plasma, tPA-induced
Assay: Plasma-based clot lysis assay (5%)
Type: biochemical
Conditions: human citrated platelet-poor plasma 5%, fibrinogen 3 μM, CaCl2 10 mM, tPA 0.2 nM, 37° C., OD at 405 nm
Outline: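 Compounds added to 5% platelet-poor citrated human plasma with 3 μM fibrinogen in 20 mM HEPES, 150 mM NaCl, 0.01% Brij, pH 7. Clotting and lysis started with 10 mM CaCl2 and 0.2 nM tPA at 37° C. IC50 derived by comparing time courses with a blank control reaction.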

Row | IC50 [nM] | Compound
1 | 39 | Cc1nn2c(C3CCNCC3)cc(=O)[nH]c2c1C(=O)N(C)Cc1ccccc1 [Example 436, N-benzyl-N,2-dimethyl-5-oxo-7-(piperidin-4-yl)-4,5-dihydro-pyrazolo[1,5-a] pyrimidine-3-carboxamide hydrochloride]
2 | 120 | O=c1cc(C2CCNCC2)n2ncc(-c3nc(-c4ccc(F)s4)no3)c2[nH]1 [Example 109, 3-[3-(5-fluorothiophen-2-yl)-1,2,4-oxadiazol-5-yl]-7-(piperidin-4-yl)pyrazolo[1,5-a]pyrimidin-5(4H)-one]
3 | 35 | O=c1cc(C2CCNCC2)n2ncc(-c3nnc(CC4CCCCC4)o3)c2[nH]1 [Example 182, 3-[5-(cyclohexylmethyl)-1,3,4-oxadiazol-2-yl]-7-(piperidin-4-yl)pyrazolo[1,5-a]pyrimidin-5 (4H)-one hydrochloride]
4 | 24 | NC(=O)c1cnn2c(C3CCNCC3)cc(=O)[nH]c12 [Example 14, 5-Oxo-7-(piperidin-4-yl)-4,5-dihydropyrazolo[1,5-a]pyrimidine-3-carboxamide hydrochloride]
5 | 30 | O=c1cc(C2CCNCC2)n2ncc(-c3noc(CC(F)(F)F)n3)c2[nH]1 [Example 388, 7-(Piperidin-4-yl)-3-[5-(2,2,2-trifluoroethyl)-1,2,4-oxadiazol-3-yl]pyrazolo[1,5-a]pyrimidin-5(4H)-one hydrochloride]
6 | 29 | Cc1nn2c(C3CCNCC3)cc(=O)[nH]c2c1-c1nc(-c2cccc(Cl)c2)no1 [Example 441, 3-[3-(3-chlorophenyl)-1,2,4-oxadiazol-5-yl]-2-methyl-7-(piperidin-4-yl)pyrazolo[1,5-a]pyrimidin-5(4H)-one hydrochloride]
7 | 19 | COc1ccc(-c2cnn3c(C4CCNCC4)cc(=O)[nH]c23)cn1 [Example 69, 3-(6-Methoxypyridin-3-yl)-7-(piperidin-4-yl)pyrazolo[1,5-a]pyrimidin-5 (4H)-one]
8 | 34 | Cc1ccccc1Cc1noc(-c2cnn3c(C4CCNCC4)cc(=O)[nH]c23)n1 [Example 198, 3-[3-(2-methylbenzyl)-1,2,4-oxadiazol-5-yl]-7-(piperidin-4-yl)pyrazolo[1,5-a]pyrimidin-5(4H)-one hydrochloride]
9 | 17 | CC(C)(c1ccc(F)cc1)c1noc(-c2cnn3c(C4CCNCC4)cc(=O)[nH]c23)n1 [Example 255, 3-{3-[2-(4-fluorophenyl)propan-2-yl]-1,2,4-oxadiazol-5-yl}-7-(piperidin-4-yl)pyrazolo[1,5-a]pyrimidin-5(4H)-one hydrochloride]
10 | 47 | Cc1nn2c(C3CCNCC3)cc(=O)[nH]c2c1C(=O)N1CCCC(C)(C)C1 [Example 420, 3-[(3,3-dimethyl-piperidin-1-yl)carbonyl]-2-methyl-7-(piperidin-4-yl) pyrazolo[1,5-a] pyrimidin-5(4H)-one hydrochloride]
11 | 34 | O=c1cc(C2CCNCC2)n2ncc(-c3noc(-c4ccc(C(F)(F)F)cc4)n3)c2[nH]1 [Example 231, 7-(piperidin-4-yl)-3-{5-[4-(trifluoromethyl)phenyl]-1,2,4-oxadiazol-3-yl}pyrazolo[1,5-a]pyrimidin-5(4H)-one hydrochloride]
12 | 29 | Cc1ccc(F)cc1NC(=O)c1cnn2c(C3CCNCC3)cc(=O)[nH]c12 [Example 76, N-(5-fluoro-2-methylphenyl)-5-oxo-7-(piperidin-4-yl)-4,5-dihydropyrazolo[1,5-a]pyrimidine-3-carboxamide]
13 | 27 | Cc1ccc(-c2noc(-c3cnn4c(C5CCNCC5)cc(=O)[nH]c34)n2)cc1 [Example 39, 3-[3-(4-Methylphenyl)-1,2,4-oxadiazol-5-yl]-7-(piperidin-4-yl)pyrazolo[1,5-a]pyrimidin-5 (4H)-hydrochloride]

The remaining lines, values behind:

Row | Compound | IC50 [nM]
14 | O=c1cc(C2CCNCC2)n2ncc(-c3nc(Cc4ccccc4Cl)no3)c2[nH]1 [Example 209, 3-[3-(2-chlorobenzyl)-1,2,4-oxadiazol-5-yl]-7-(piperidin-4-yl)pyrazolo[1,5-a]pyrimidin-5(4H)-one hydrochloride] | 36
15 | NC(=O)c1c(-c2ccccc2)nn2c(C3CCNCC3)cc(=O)[nH]c12 [Example 41, 5-Oxo-2-phenyl-7-(piperidin-4-yl)-4,5-dihydropyrazolo[1,5-a]pyrimidine-3-carboxamide trifluoroacetate] | 19
16 | O=c1cc(C2CCNCC2)n2ncc(-c3nc(-c4cc(Cl)ccc4C(F)(F)F)no3)c2[nH]1 [Example 145, 3-{3-[5-Chloro-2-(trifluoromethyl)phenyl]-1,2,4-oxadiazol-5-yl}-7-(piperidin-4-yl)pyrazolo[1,5-a]pyrimidin-5(4H)-one hydrochloride] | 28
17 | O=C(O)c1cc2[nH]c(=O)cc(C3CCNCC3)n2n1 [Example 46, 5-Oxo-7-(piperidin-4-yl)-4,5-dihydropyrazolo[1,5-a]pyrimidine-2-carboxylic acid hydrochloride] | 69
18 | CC(C)Oc1ccc(Cc2nc(-c3cnn4c(C5CCNCC5)cc(=O)[nH]c34)no2)cc1 [Example 252, 7-(piperidin-4-yl)-3-{5-[4-(propan-2-yloxy)benzyl]-1,2,4-oxadiazol-3-yl}pyrazolo[1,5-a]pyrimidin-5(4H)-one hydrochloride] | 24
19 | O=c1cc(C2CCNCC2)n2ncc(-c3nc(-c4cccc(Cl)c4Cl)no3)c2[nH]1 [Example 143, 3-[3-(2,3-Dichlorophenyl)-1,2,4-oxadiazol-5-yl]-7-(piperidin-4-yl)pyrazolo[1,5-a]pyrimidin-5 (4H)-one hydrochloride] | 41
20 | O=c1cc(C2CCNCC2)n2ncc(-c3cccc(OC(F)(F)F)c3)c2[nH]1 [Example 70, 7-(Piperidin-4-yl)-3-[3-(trifluoromethoxy)phenyl]pyrazolo[1,5-a]pyrimidin-5(4H)-one hydrochloride] | 14
21 | O=C(O)c1c(C(F)(F)F)nn2c(C3CCNCC3)cc(=O)[nH]c12 [Example 457, 5-oxo-7-(piperidin-4-yl)-2-(trifluoromethyl)-4,5-dihydropyrazolo[1,5-a]pyrimidine-3-carboxylic acid hydrochloride] | 85
22 | O=C(c1cnn2c(C3CCNCC3)cc(=O)[nH]c12)N1CCCC1 [Example 322, 7-(piperidin-4-yl)-3-(pyrrolidin-1-ylcarbonyl)pyrazolo[1,5-a]pyrimidin-5(4H)-one hydrochloride] | 36
23 | O=c1cc(C2CCNCC2)n2ncc(-c3noc(Cc4ccccc4)n3)c2[nH]1 [Example 228, 3-(5-benzyl-1,2,4-oxadiazol-3-yl)-7-(piperidin-4-yl)pyrazolo[1,5-a]pyrimidin-5(4H)-one hydrochloride] | 33
24 | CCc1noc(-c2cnn3c(C4CCNCC4)cc(=O)[nH]c23)n1 [Example 107, 3-(3-ethyl-1,2,4-oxadiazol-5-yl)-7-(piperidin-4-yl)pyrazolo[1,5-a]pyrimidin-5(4H)-one] | 49
25 | N#Cc1ccc(-c2nnc(-c3cnn4c(C5CCNCC5)cc(=O)[nH]c34)o2)cc1 [Example 167, 4-{5-[5-oxo-7-(piperidin-4-yl)-4,5-dihydropyrazolo[1,5-a]pyrimidin-3-yl]-1,3,4-oxadiazol-2-yl}benzonitrile hydrochloride] | 34
26 | N#Cc1csc(-c2cnn3c(C4CCNCC4)cc(=O)[nH]c23)c1 [Example 68, 5-[5-Oxo-7-(piperidin-4-yl)-4,5-dihydropyrazolo[1,5-a]pyrimidin-3-yl]thiophene-3-carbonitrile trifluoroacetate] | 11
27 | COCc1nc(-c2cnn3c(C4CCNCC4)cc(=O)[nH]c23)no1 [Example 394, 3-(5-(methoxymethyl)-1,2,4-oxadiazol-3-yl)-7-(piperidin-4-yl)pyrazolo[1,5-a]pyrimidin-5(4H)-one hydrochloride] | 29
28 | O=c1cc(C2CCNCC2)n2nc(C(F)(F)F)cc2[nH]1 [Example 24, 7-(Piperidin-4-yl)-2-(trifluoromethyl)pyrazolo[1,5-a]pyrimidin-5(4H)-one hydrochloride] | 59
29 | CC1(C)CN(Cc2cnn3c(C4CCNCC4)cc(=O)[nH]c23)CCO1 [Example 330, 3-[(2,2-dimethylmorpholin-4-yl)methyl]-7-(piperidin-4-yl)pyrazolo[1,5-a]pyrimidin-5(4H)-one hydrochloride] | 110
30 | COc1cc(-c2noc(-c3cnn4c(C5CCNCC5)cc(=O)[nH]c34)n2)ccc1C [Example 116, 3-[3-(3-Methoxy-4-methylphenyl)-1,2,4-oxadiazol-5-yl]-7-(piperidin-4-yl)pyrazolo[1,5-a]pyrimidin-5(4H)-one hydrochloride] | 39
31 | CN1CCC(Cc2noc(-c3cnn4c(C5CCNCC5)cc(=O)[nH]c34)n2)CC1 [Example 203, 3-{3-[(1-methylpiperidin-4-yl)methyl]-1,2,4-oxadiazol-5-yl}-7-(piperidin-4-yl)pyrazolo[1,5-a]pyrimidin-5(4H)-one hydrochloride] | 34
32 | Cc1nn2c(C3CCNCC3)cc(=O)[nH]c2c1C(=O)N1CCSCC1 [Example 397, 2-methyl-7-(piperidin-4-yl)-3-(thiomorpholin-4-ylcarbonyl)pyrazolo [1,5-a]pyrimidin-5(4H)-one hydrochloride] | 36
33 | CC(C)c1nc(-c2cnn3c(C4CCNCC4)cc(=O)[nH]c23)no1 [Example 256, 7-(piperidin-4-yl)-3-[5-(propan-2-yl)-1,2,4-oxadiazol-3-yl]pyrazolo[1,5-a]pyrimidin-5(4H)-one hydrochloride] | 28
34 | O=c1cc(C2CCNCC2)n2ncc(-c3nc(C(F)(F)F)cs3)c2[nH]1 [Example 351, 7-(piperidin-4-yl)-3-[4-(trifluoromethyl)-1,3-thiazol-2-yl]pyrazolo[1,5-a]pyrimidin-5 (4H)-one hydrochloride] | 26
35 | CN(Cc1ccccc1)C(=O)c1cnn2c(C3CCNCC3)cc(=O)[nH]c12 [Example 97, N-benzyl-N-methyl-5-oxo-7-(piperidin-4-yl)-4,5-dihydropyrazolo[1,5-a]pyrimidine-3-carboxamide hydrochloride] | 24
